Series [1] is described as follows: MRTlast in male Sprague-Dawley rat at 6.1 micromol/kg, iv administered as single dose and measured upto 24 hrs by LC-MS/MS analysis. Format: ADME, organism-based. Particulars: in vivo, dose 6.1 µmol/kg.
Series [2] in a line: Tmax in male Sprague-Dawley rat at 24.4 micromol/kg, IG administered as single dose and measured upto 24 hrs by LC-MS/MS analysis. The format is ADME. Particulars: in vivo, po, dose 24.4 µmol/kg.
For a further series, the target named is Cytochrome P450 2D6 (Homo sapiens, UniProt P10635). The series can be described thus: Inhibition of CYP2D6 (unknown origin). Format: ADME.
Sequence of Cytochrome P450 2D6 (P10635 whole entry): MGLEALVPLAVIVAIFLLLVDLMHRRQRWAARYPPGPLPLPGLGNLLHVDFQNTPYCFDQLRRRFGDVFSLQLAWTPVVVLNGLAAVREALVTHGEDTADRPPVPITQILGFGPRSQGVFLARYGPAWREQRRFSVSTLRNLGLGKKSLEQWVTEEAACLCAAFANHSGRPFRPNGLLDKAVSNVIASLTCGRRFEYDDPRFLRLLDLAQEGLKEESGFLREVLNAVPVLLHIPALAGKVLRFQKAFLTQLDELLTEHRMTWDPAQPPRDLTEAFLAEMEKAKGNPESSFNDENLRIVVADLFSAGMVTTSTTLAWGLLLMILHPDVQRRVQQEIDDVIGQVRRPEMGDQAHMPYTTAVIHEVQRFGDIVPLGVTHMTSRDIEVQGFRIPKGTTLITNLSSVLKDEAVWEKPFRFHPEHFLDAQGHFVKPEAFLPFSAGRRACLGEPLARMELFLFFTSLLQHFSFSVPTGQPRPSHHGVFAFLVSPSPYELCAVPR
A short description of series [3]: Apparent volume of distribution in male Sprague-Dawley rat at 24.4 micromol/kg, IG administered as single dose and measured upto 24 hrs by LC-MS/MS analysis. The format is ADME. Particulars: in vivo, po, dose 24.4 µmol/kg.
Series [4] is described as follows: Drug concentration in Sprague-Dawley rat brain at 24.4 micromol/kg, IG measured after 2 hrs by LC-MS/MS analysis. Particulars: in vivo, po, dose 24.4 µmol/kg. Format: ADME, tissue-based.
The nature of series [5]: AUClast in male Sprague-Dawley rat at 6.1 micromol/kg, iv administered as single dose and measured upto 24 hrs by LC-MS/MS analysis. Format: ADME, organism-based. Particulars: in vivo, dose 6.1 µmol/kg.
The next series concerns the target T1, Cytochrome P450 1A2 (Homo sapiens, UniProt P05177).
T1 sequence (P05177 whole entry): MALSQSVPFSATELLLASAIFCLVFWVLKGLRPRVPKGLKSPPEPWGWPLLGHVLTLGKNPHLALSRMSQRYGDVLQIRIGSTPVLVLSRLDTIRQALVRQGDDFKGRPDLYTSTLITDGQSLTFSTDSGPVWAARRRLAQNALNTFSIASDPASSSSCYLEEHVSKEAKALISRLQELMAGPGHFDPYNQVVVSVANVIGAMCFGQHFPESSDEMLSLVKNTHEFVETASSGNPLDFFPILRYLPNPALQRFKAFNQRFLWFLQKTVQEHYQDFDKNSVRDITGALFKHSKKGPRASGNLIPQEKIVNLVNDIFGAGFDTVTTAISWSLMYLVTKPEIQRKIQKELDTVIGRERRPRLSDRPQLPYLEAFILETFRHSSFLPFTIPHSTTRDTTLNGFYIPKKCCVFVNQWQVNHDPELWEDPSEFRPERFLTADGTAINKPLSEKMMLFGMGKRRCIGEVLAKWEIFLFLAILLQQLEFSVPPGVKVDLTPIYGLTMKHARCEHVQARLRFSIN
The series can be described thus: Inhibition of CYP1A2 (unknown origin). Format: ADME.

A short description of series [6]: Drug concentration in Sprague-Dawley rat brain at 24.4 micromol/kg, IG measured after 0.5 hrs by LC-MS/MS analysis. Format: ADME, tissue-based. Particulars: in vivo, po, dose 24.4 µmol/kg.
Series [7] is described as follows: Initial drug concentration in male Sprague-Dawley rat at 6.1 micromol/kg, iv administered as single dose and measured upto 24 hrs by LC-MS/MS analysis. Particulars: in vivo, dose 6.1 µmol/kg. The format is ADME, organism-based.
Series [8] in a line: Metabolic stability in Sprague-Dawley rat liver microsomes assessed as compound remaining at 1 uM preincubated for 10 mins followed by NADPH addition by LC-MS analysis. The format is ADME, Microsome. Particulars: read-out: Stability.
A further series has as its system Rattus norvegicus. Nature of the series: Antiseizure activity in PTZ-induced male Sprague-Dawley rat acute seizure model assessed as increase in latency to tonic seizures at 24.4 micromol/kg, po pretreated for 1 hr followed by PTZ addition and measured after 60 mins (reference value: 77 +/- 13.4 sec). The format is functional. Particulars: dose 24.4 µmol/kg, time 120 min, 2 h.

Series [9] concerns the target T2, GABA-A receptor; alpha-1/beta-2/gamma-2 (Homo sapiens, UniProt P14867+P18507+P47870).
T2 sequence (P14867 whole entry): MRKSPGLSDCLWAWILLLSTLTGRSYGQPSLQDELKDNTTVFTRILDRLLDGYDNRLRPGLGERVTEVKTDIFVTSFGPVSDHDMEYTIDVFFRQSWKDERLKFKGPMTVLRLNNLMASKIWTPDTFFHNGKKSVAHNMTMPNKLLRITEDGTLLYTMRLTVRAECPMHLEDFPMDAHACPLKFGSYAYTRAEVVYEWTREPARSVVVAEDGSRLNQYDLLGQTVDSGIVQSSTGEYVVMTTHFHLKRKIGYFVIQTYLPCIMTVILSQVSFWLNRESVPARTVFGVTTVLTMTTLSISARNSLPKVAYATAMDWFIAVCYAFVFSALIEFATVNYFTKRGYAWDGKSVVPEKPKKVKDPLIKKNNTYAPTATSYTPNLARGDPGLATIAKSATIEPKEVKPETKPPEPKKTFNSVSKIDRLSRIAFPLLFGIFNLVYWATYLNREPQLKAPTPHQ
T2 sequence (P47870 whole entry): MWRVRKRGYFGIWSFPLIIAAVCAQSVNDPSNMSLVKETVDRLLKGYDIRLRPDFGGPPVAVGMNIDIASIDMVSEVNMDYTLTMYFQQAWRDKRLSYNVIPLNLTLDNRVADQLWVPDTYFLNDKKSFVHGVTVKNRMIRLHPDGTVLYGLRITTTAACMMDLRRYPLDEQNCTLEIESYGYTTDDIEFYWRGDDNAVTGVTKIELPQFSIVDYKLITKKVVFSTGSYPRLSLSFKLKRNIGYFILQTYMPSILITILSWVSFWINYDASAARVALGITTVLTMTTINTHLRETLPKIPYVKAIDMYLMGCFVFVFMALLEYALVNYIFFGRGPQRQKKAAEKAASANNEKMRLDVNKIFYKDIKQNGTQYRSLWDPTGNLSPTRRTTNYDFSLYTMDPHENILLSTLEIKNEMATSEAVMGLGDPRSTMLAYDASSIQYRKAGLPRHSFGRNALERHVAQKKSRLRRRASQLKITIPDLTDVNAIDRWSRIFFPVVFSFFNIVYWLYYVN
T2 sequence (P18507 whole entry): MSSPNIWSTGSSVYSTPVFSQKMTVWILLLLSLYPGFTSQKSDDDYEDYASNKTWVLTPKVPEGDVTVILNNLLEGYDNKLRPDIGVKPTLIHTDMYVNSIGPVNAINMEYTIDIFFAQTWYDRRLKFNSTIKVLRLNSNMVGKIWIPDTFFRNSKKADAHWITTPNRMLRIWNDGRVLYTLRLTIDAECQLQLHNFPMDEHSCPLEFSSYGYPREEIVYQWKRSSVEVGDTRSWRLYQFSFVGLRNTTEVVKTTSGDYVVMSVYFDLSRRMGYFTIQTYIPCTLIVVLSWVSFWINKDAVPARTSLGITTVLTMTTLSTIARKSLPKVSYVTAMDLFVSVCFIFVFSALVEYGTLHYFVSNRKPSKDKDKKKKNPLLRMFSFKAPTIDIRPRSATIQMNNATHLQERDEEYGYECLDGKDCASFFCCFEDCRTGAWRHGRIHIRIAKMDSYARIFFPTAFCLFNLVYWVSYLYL
Nature of the series: Positive allosteric modulation of synaptic alpha1beta2gamma2 GABA-A receptor (unknown origin) transfected in LTK cells assessed as potentiation of GABA-induced peak current amplitude at -80 mV holding potential preincubated for 30 secs followed by GABA stimulation for 2 secs by Q-patch assay. The format is cell-based.

Series [10] in a line: Metabolic stability in human liver microsomes assessed as intrinsic clearance at 1 uM preincubated for 10 mins followed by NADPH addition by LC-MS analysis. Particulars: read-out: CLH. The format is ADME, Microsome. (In general: Liver microsomes are vesicles of endoplasmic reticulum, rich in cytochrome P450 enzymes.)
Series [11] in a line: Genotoxicity in Salmonella typhimurium TA100 assessed as induction of reverse mutation in absence of rat liver S9 fraction. Format: toxicity. Particulars: salmonella enterica subsp. enterica serovar typhimurium.
A short description of series [12]: Ratio of Cmax in IG dosed Sprague-Dawley rat brain to plasma. The format is ADME, organism-based. Particulars: brain and plasma, po, read-out: BPR.

One may read the MRT last as a mean duration of stay, worked out from the concentration-time curve. In general, Tmax refers to the time from dosing to the highest level. In general, IC50 refers to the concentration that inhibits the measured activity by half. Low values mean inhibition by little substance, high ones a need for much substance. The term AUC(0-t) denotes the area under the concentration-time curve up to a stated or last time point. One may read the EC50 as the midpoint of the concentration-response curve.

Consider `C[C@@]1(O)CC[C@H]2[C@H](CC[C@@H]3[C@@H]2CC[C@]2(C)[C@@H](C(=O)Cn4cc(C#N)cn4)CC[C@@H]32)C1` [ZURANOLONE], for which the MRT last at 24 h in series [1] was determined as 2.12 h. Besides, the Tmax in [2] was 1.17 h. The IC50 against Cytochrome P450 2D6 and against Cytochrome P450 1A2 was more than 30 µM throughout. Besides, the Vz in series [3] is 10.54 L/kg. Also, the Ct in [4] came out at 2220 nmol/kg; in series [6], 3103 nmol/kg. In series [5], the AUC(0-t) at 24 h was determined as 5.21 µM·h. The same molecule registered a C0 at 24 h in [7] of 3440 nM. The remaining at 1 µM in [8] is 40%. In addition, in the series on Rattus norvegicus, the Time turned out to be 2850 s. Further, the EC50 in series [9] was 0.152 µM. Also, the CLint scaled at 1 µM in series [10] was 10.6 mL/min/kg.

In the case of `C[C@@]1(O)CC[C@H]2[C@H](CC[C@@H]3[C@@H]2CC[C@]2(C)[C@@H](C(=O)Cn4cnn(-c5cc(F)nc(F)c5)c4=O)CC[C@@H]32)C1`, in [1], the MRT last at 24 h turned out to be 4.75 h. In addition, the Tmax in [2] stood at 2.01 h. For the same molecule, the IC50 at Cytochrome P450 2D6 and against Cytochrome P450 1A2 was more than 30 µM throughout. Besides, the Vz in [3] was determined as 8.86 L/kg. Further, the Ct was determined as 3404 nmol/kg in [4] and 2320 nmol/kg in series [6]. In [5], this molecule came in with an AUC(0-t) at 24 h of 6.03 µM·h. In series [11], the Activity result is reported as “Non-Toxic”. For the same molecule, in series [12], the Kp was determined as 1.5. The molecule also came in with a C0 at 24 h in [7] of 1870 nM. Moreover, the remaining at 1 µM in [8] was found to be 68%. The EC50 in [9] amounted to 0.141 µM. The CLint scaled at 1 µM in [10] is less than 6.75 mL/min/kg.

For the origin of these results see ChEMBL document CHEMBL5608182, “Synthesis and evaluation of neuroactive steroids with novel pharmacophore at C-21 let identify a compound with advantageous PK profile and higher EC50 and Emax as PAM on GABAA receptor” (Eur J Med Chem, 2024).
